For data set [1], the system named is CTec2+HTec2 (9:1, v/v) commercial enzyme mixtures. Description: Compatibility of ILs with commercial enzyme mixtures (enzymatic hydrolysis of microcrystalline cellulose). The data set is classed as biochemical. The settings on record: pH adjusted to 4.5 with hydrochloric acid. As for the experimental part: (§1) In another set of pretreatment, switchgrass (100 mg, dry weight) was mixed with 5, 10, and 20% [Ch][Lys]-water solutions at a 10% biomass loading in a 15 ml capped glass pressure tube and pretreated at 140° C. for 1 h. After pretreatment, CTec2+HTec2 (9:1 v/v) mixture was directly added to the pretreatment slurry at 10 mg EP per g starting biomass for saccharification at the same conditions as stated above. In addition, microcrystalline cellulose (MCC) was hydrolyzed by 30 mg/g starting biomass for CTec2+HTec2, spiked with 0-30% IL.

Data set [2] deals with commercial enzyme mixtures (CTec2+HTec2). Kind of data set: Effect of acid-induced pH adjustment of 5% [Ch][Lys] solution on enzymatic hydrolysis of MCC. The data set is classed as biochemical. The conditions noted are these: for relative activities of enzymes on MCC: 5% [Ch][Lys] solution, pH adjusted with the named acid. Here is the method:
To enable a one-pot process, the pH mis-match must be adjusted to lower the pH of pretreatment slurry to a range suitable to enzymes and microbes. We tested a series of mineral and organic acids such as hydrochloric acid, phosphoric acid, sulfuric acid, acetic acid, citric acid, lactic acid, formic acid for the pH adjustment of 5% [Ch][Lys] solution.
as §1

A short description of data set [3]: pH of [Ch][Lys]/water systems and CO2-based pH adjustment. The data set is classed as physicochemical. The text has this:
With the increasing of CO2 pressure from 0 to 0.1 MPa, pH values of all [Ch][Lys]-water solutions decrease sharply from pH of […] to pH of 7-9. Further increasing CO2 pressure led to further pH drop. For 20 wt % [Ch][Lys]-water solution, a pH value of 7.2 was obtained at a CO2 pressure of around 2 MPa. However, only 0.7 MPa CO2 pressure is needed to drop the pH of 10 wt % [Ch][Lys]-water solution to 7.1. While, only 0.1 MPa CO2 pressure is needed to low the pH of the 5 wt % [Ch][Lys]-water solution to around 6.9, similar to or lower than the typical pressure deployed for carbonating a can of Soda. The process is reversible by increasing temperature or bubbling N2, driving out the CO2 and restoring the pH to its original value. In addition, a small fraction of alcohol (e.g. ethylene glycol) could be introduced for further enhancing CO2 absorption efficiency if necessary.^20
All the CO2 absorption experiments were carried out at room temperature in a 25 mL stainless steel Parr reactor (Parr instrument Co., USA) equipped with a magnetic stirrer plate and CO2 cylinder (>99.9% CO2 purity). In a typical procedure, 10 mL a certain concentration of [Ch][Lys] aqueous system was added into the Parr. After being sealed, the Parr was stirred at room temperature, and the absorption pressure was held constant by a backpressure valve. After the absorption was completed, the Parr was cooled to ambient temperature, and the remaining CO2 was removed slowly. Then, the corresponding pH value of the mixture was analyzed by Orion™ 3-Star Benchtop pH Meter. To elucidate the interaction between CO2 with side amine and terminal amine groups of [Ch][Lys] in H2O, we conducted ^13C nuclear magnetic resonance (NMR) analysis of [Ch][Lys] before and after CO2 absorption. Furthermore, two-dimensional (2D) […] heteronuclear single quantum coherence (HSQC) and heteronuclear multiple bond correlation (HMBC) nuclear magnetic resonance (NMR) analysis were also carried out on [Ch][Lys] before and after CO2 absorption.

The subject of data set [4] is Saccharomyces cerevisiae strain BY4741. Kind of data set: Toxicity screen of ionic liquids on Saccharomyces cerevisiae strain BY4741. The data set is classed as cell-based. The settings on record: 200 mM IL, SC medium containing 0.2% glucose, pH adjusted to 7 with hydrochloric acid if necessary. Here is the method: Both choline, the cation precursor and lysine, the anion precursor are essential nutrients for microbial growth, which are known to be non-toxic and biodegradable. In this study, we carried out toxicity screen of 15 typical ILs including [Ch][Lys], [Ch][OAc] and imidazolium based ILs, [[…]][OAc] on Saccharomyces cerevisiae strain BY4741 at different IL concentrations of 25 and 200 mM (FIG. 2A-2B) in SC medium containing 0.2% glucose with the pH of the IL solution adjusted to 7 using hydrochloric acid if necessary. It aims to test whether the IL, [Ch][Lys] is compatible to commercial enzymes and biofuel producing microbes. As shown in FIG. 2A-2D, the microbial growth was completely jeopardized in a concentration of 200 mM ( 4.3 wt %) for most of the ILs.

In the case of `C[N+](C)(C)CCO.NCCCC[C@H](N)C(=O)[O-]` [[Ch][Lys], cholinium lysinate], the figures for the “relative activity of enzymes (sugar yield from hydrolysis of microcrystalline cellulose) vs no-IL control” value in data set [1] (5% IL) and in data set [1] (10% IL) were roughly 70% and roughly 50%, respectively. For the same molecule, in data set [2] (5% [Ch][Lys] solution without pH adjustment), the enzyme activity entry is listed as “very low”. Besides, the pH result in data set [3] (5 wt % [Ch][Lys]-water, 0.1 MPa CO2 pressure) is “around 6.9”; in data set [3] (10 wt % [Ch][Lys]-water, 0.7 MPa CO2 pressure), 7.1; in data set [3] (20 wt % [Ch][Lys]-water, CO2 pressure around 2 MPa) it was 7.2; in data set [3] ([Ch][Lys] or aqueous [Ch][Lys] solution during and after pretreatment) it was 12-14; in data set [3] (all [Ch][Lys]-water solutions (5, 10, 20 wt %), CO2 pressure 0.1 MPa, room temperature), 7-9. The microbial growth entry in data set [4] is given as “no retard of microbial growth”.

As to `O=C(O)CC(O)(CC(=O)O)C(=O)O` [citric acid], the “relative activities of enzymes on MCC” value in data set [2] is given as “outperforms the other acids”.

Take `Cl` [hydrochloric acid]: the “relative activities of enzymes on MCC” value in data set [2] is given as “outperforms the other acids”.

As to `O=S(=O)(O)O` [sulfuric acid], the “relative activities of enzymes on MCC” value in data set [2] is reported as “outperforms the other acids”.

The values above are taken from patent US11976311B2, “Method of adjusting the pH of a pretreatment solution using carbon dioxide useful for integrating saccharification and fermentation of a biomass” (National Technology & Engineering Solutions of Sandia, LLC, priority 2014, dated 2024).
